Reference: US8835644B2, “Broad spectrum benzothiophene-nitrothiazolide and other antimicrobials” (University of Virginia Patent Foundation, priority 2009, dated 2014)
In brackets after ≈: the same amount, converted by molar mass. Where two headings read alike, the source gives them in different places. Marks after values point to notes of the source that are not given here.

What was measured:
S. epidermidis = assay: MIC testing by broth dilution, S. epidermidis plank; type: cell-based, Staphylococcus epidermidis
In short: (§1)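 Media: LB (E. coli), Trypticase Soy (S. epidermidis), BHI (C. jejuni); plank cells. C. difficile on Wilkins Chalgrin agar, anaerobic Kirby-Bauer disks, zone vs NTZ zone ratio.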

C. jejuni = assay: MIC testing by broth dilution, C. jejuni; type: cell-based, Campylobacter jejuni
In short: as §1

[1] = tested on: PFOR (pyruvate ferredoxin oxidoreductase); assay: Direct PFOR enzyme assay; type: biochemical
Procedure: Representative compounds of the invention were tested in a series of assays against a series of organisms as described above. […] The organisms tested include, C. difficile, H. pylori, C. jejuni, MRSA, S. epidermidis, and E. coli. S. epidermidis and E. coli were tested in the plank and biofilm assay. A disk diffusion assay was also used for C. difficile. Direct PFOR enzyme assays were also performed. All analogues and derivatives were not tested on every organism in every type of assay (the “-” in each table means that it was not tested).

MRSA = assay: MIC testing by broth dilution, MRSA; type: cell-based, Staphylococcus aureus
In short: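 Values are broth-dilution MICs, defined as the well showing no growth on visual reading after 24 h; the tested range was 32 to 0.06 μg/ml, in organism-specific media (LB, Trypticase Soy, Brain Heart Infusion). The C. difficile entries come instead from anaerobic Kirby-Bauer disk zones, normalised to NTZ.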

H. pylori = assay: MIC testing by broth dilution, H. pylori; type: cell-based, Helicobacter pylori
In short: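 Broth dilution MIC determination against H. pylori: a standard inoculum in 100 microliters of Brain Heart Infusion medium was placed in 96 well microplates. Test compounds began at 32 μg/ml in 200 microliters in well one and were serially diluted over a 32 to 0.06 range. After 24 h, plates were scored by eye and the first well without growth was recorded as the MIC.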

C. difficile = assay: Disk diffusion (Kirby Bower), C. difficile; type: cell-based, Clostridium difficile; conditions: for Disk Diff (%) C. difficile: Nitazoxanide = 100, 2-amino-3,5-dinitrothiophene analogues table; for Disk Diffusion (%) C. difficile: zone of inhibited growth as relative ratio to the zone for NTZ
In short: as §1

E. coli = assay: MIC testing by broth dilution, E. coli plank; type: cell-based, Escherichia coli
In short: as §1

[2] = planktonic, 2-amino-3,5-dinitrothiophene analogues table, read-out: MIC S. epidermidis Plank
[3] = 2-amino-3,5-dinitrothiophene analogues table, read-out: MIC C. jejuni
[4] = * biphasic initial inhibition followed by uninhibited rate, ** caused some precipitant in extract
[5] = 2-amino-3,5-dinitrothiophene analogues table, read-out: MIC MRSA
[6] = 2-amino-3,5-dinitrothiophene analogues table, read-out: MIC H. pylori
[7] = Staphylococcus epidermidis, read-out: MIC S. epidermidis Plank
[8] = Campylobacter jejuni, read-out: MIC C. jejuni
[9] = Staphylococcus aureus, MRSA, read-out: MIC MRSA
[10] = Helicobacter pylori, read-out: MIC H. pylori
[11] = planktonic, 2-amino-3,5-dinitrothiophene analogues table, read-out: MIC E. coli Plank

Row | Compound | MIC (S. epidermidis; [2]) [µM] | MIC (C. jejuni; [3]) [µM] | PFOR inhibition relative to nitazoxanide (=100) [1, 4] | MIC (MRSA; [5]) [µM] | MIC (H. pylori; [6]) [µM] | Disk Diff (%) C. difficile (C. difficile) [%] | PFOR inhibition relative to nitazoxanide (=100) [1] | further results
1 | O=C(Nc1sc([N+](=O)[O-])cc1[N+](=O)[O-])c1ccc(Br)o1 [VPC16b2023] | 88.4 (≈ 32 µg/mL) | 2.8 (≈ 1.01 µg/mL) | 94** % | 33.1 (≈ 12 µg/mL) | 2.1 (≈ 0.76 µg/mL) | – | – | –
2 | O=C(Nc1sc([N+](=O)[O-])cc1[N+](=O)[O-])c1cccs1 [VPC16b1093, N-(3,5-Dinitrothiophen-2-yl)thiophene-2-carboxamide] | – | – | 143% | – | – | 43 | – | MIC (S. epidermidis; [7]): 13.4 µM (≈ 4.01 µg/mL); MIC (C. jejuni; [8]): 1 µM (≈ 0.299 µg/mL); MIC (MRSA; [9]): 26.7 µM (≈ 7.99 µg/mL); MIC (E. coli; Escherichia coli, read-out: MIC E. coli Plank): 107 µM (≈ 32 µg/mL); MIC (H. pylori; [10]): 2.5 µM (≈ 0.748 µg/mL)
3 | O=C(Nc1ncc([N+](=O)[O-])s1)c1ccc(Cl)c(C(F)(F)F)c1 [VPC16a1060] | – | – | – | – | – | – | 63* % | MIC (C. jejuni; Campylobacter jejuni, 24 h, read-out: MIC (μM) C. jejuni): 2.8 µM (≈ 0.985 µg/mL); Disk Diffusion (%) C. difficile (C. difficile): 89%; MIC (E. coli; Escherichia coli, 24 h, read-out: MIC (μM) E. coli Plank): 91 µM (≈ 32 µg/mL); MIC (H. pylori; Helicobacter pylori, 24 h, read-out: MIC (μM) H. pylori): 2.8 µM (≈ 0.985 µg/mL)
4 | O=C(Nc1sc([N+](=O)[O-])cc1[N+](=O)[O-])c1ccc(Br)s1 [VPC16b2025] | 15.9 (≈ 6.01 µg/mL) | 2.6 (≈ 0.983 µg/mL) | 98** % | 63.5 (≈ 24 µg/mL) | 2.6 (≈ 0.983 µg/mL) | – | – | –
5 | O=C(Nc1sc([N+](=O)[O-])cc1[N+](=O)[O-])c1ccoc1 [VPC16b1094] | 28.2 (≈ 7.99 µg/mL) | 0.4 (≈ 0.113 µg/mL) | 126* % | 56.5 (≈ 16 µg/mL) | 2.7 (≈ 0.765 µg/mL) | 53 | – | MIC (E. coli; [11]): 113.0 µM (≈ 32 µg/mL)
6 | O=C(Nc1sc([N+](=O)[O-])cc1[N+](=O)[O-])c1ccccc1 [VPC16b1090] | 5.1 (≈ 1.5 µg/mL) | 0.9 (≈ 0.264 µg/mL) | 100** % | 109.1 (≈ 32 µg/mL) | 1.3 (≈ 0.381 µg/mL) | 0 | – | MIC (E. coli; [11]): 109.1 µM (≈ 32 µg/mL)
7 | O=C(Nc1nc(Cl)c([N+](=O)[O-])s1)c1cccs1 [VPC162089, N-(4-Chloro-5-nitrothiazol-2-yl)thiophene-2-carboxamide] | – | – | – | – | – | – | 93% | MIC (S. epidermidis; Staphylococcus epidermidis, broth dilution, Trypticase Soy, 24 h, read-out: MIC (μM) S. epidermidis Plank): 82.8 µM (≈ 24 µg/mL); MIC (C. jejuni; Campylobacter jejuni, broth dilution, Brain Heart Infusion, 24 h, read-out: MIC (μM) C. jejuni): 13.8 µM (≈ 4 µg/mL); MIC (MRSA; Staphylococcus aureus, MRSA, broth dilution, Trypticase Soy, 24 h, read-out: MIC (μM) MRSA): 110 µM (≈ 32 µg/mL); MIC (E. coli; Escherichia coli, broth dilution, LB medium, 24 h, read-out: MIC (μM) E. coli Plank): 110 µM (≈ 32 µg/mL); MIC (H. pylori; Helicobacter pylori, broth dilution, Brain Heart Infusion, 24 h, read-out: MIC (μM) H. pylori): 6.9 µM (≈ 2 µg/mL)
8 | NCCOc1ccccc1C(=O)Nc1sc([N+](=O)[O-])cc1[N+](=O)[O-] [VPC16b2031, 2-(2-Aminoethoxy)-N-(3,5-dinitrothiophen-2-yl)benzamide] | – | – | 162% | – | – | – | – | MIC (S. epidermidis; [7]): 25.7 µM (≈ 9.05 µg/mL); MIC (C. jejuni; [8]): 1.3 µM (≈ 0.458 µg/mL); MIC (MRSA; [9]): 82.3 µM (≈ 29 µg/mL); MIC (H. pylori; [10]): 1.9 µM (≈ 0.669 µg/mL)
9 | O=C(Nc1ncc([N+](=O)[O-])s1)c1cc(C(F)(F)F)ccc1Cl [VPC16a1040] | – | – | – | – | – | – | 68% | MIC (S. epidermidis; broth dilution, Trypticase Soy, 24 h, read-out: MIC (μM) S. epidermidis Plank): 22.7 µM (≈ 7.98 µg/mL); MIC (C. jejuni; broth dilution, Brain Heart Infusion, 24 h, read-out: MIC (μM) C. jejuni): 17.1 µM (≈ 6.01 µg/mL); MIC (MRSA; broth dilution, Trypticase Soy, 24 h, read-out: MIC (μM) MRSA): 22.7 µM (≈ 7.98 µg/mL); Disk Diffusion (%) C. difficile (C. difficile): 90%; MIC (E. coli; broth dilution, LB medium, 24 h, read-out: MIC (μM) E. coli Plank): 91.0 µM (≈ 32 µg/mL); MIC (H. pylori; broth dilution, Brain Heart Infusion, 24 h, read-out: MIC (μM) H. pylori): 1.1 µM (≈ 0.387 µg/mL)
